ChEMBL document CHEMBL4342467, “Discovery of a Novel Dual-Target Inhibitor of ERK1 and ERK5 That Induces Regulated Cell Death to Overcome Compensatory Mechanism in Specific Tumor Types” (J Med Chem, 2020)

Assays:
[1] = target: Mitogen-activated protein kinase 1 (Homo sapiens) (UniProt P28482); test: Inhibition of ERK2 (unknown origin) at 1 uM by Z'-Lyte assay relative to control
[2] = target: Mitogen-activated protein kinase 3 (Homo sapiens) (UniProt P27361); test: Inhibition of ERK1 (unknown origin) at 1 uM by Z'-Lyte assay relative to control
Mitogen-activated protein kinase 3 (Homo sapiens), sequence (P27361 whole entry): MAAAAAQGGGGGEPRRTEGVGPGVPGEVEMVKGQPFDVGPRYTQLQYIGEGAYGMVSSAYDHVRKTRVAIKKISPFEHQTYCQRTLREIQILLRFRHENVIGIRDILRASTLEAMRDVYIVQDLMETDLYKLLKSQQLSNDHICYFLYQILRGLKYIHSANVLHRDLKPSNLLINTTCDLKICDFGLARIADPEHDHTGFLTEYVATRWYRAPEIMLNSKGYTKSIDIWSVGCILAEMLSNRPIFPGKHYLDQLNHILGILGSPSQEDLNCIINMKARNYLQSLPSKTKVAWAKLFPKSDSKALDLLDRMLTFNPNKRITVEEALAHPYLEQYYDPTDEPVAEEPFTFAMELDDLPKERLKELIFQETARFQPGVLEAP

HeLa = test: Antiproliferative activity against human HeLa cells assessed as reduction in cell viability measured after 24 hrs; type: functional, cell-based
[3] = target: Mitogen-activated protein kinase 7 (Homo sapiens) (UniProt Q13164); test: Inhibition of ERK5 (unknown origin) at 1 uM by Z'-Lyte assay relative to control
Mitogen-activated protein kinase 7 (Homo sapiens), sequence (Q13164 2-816 limits assumed): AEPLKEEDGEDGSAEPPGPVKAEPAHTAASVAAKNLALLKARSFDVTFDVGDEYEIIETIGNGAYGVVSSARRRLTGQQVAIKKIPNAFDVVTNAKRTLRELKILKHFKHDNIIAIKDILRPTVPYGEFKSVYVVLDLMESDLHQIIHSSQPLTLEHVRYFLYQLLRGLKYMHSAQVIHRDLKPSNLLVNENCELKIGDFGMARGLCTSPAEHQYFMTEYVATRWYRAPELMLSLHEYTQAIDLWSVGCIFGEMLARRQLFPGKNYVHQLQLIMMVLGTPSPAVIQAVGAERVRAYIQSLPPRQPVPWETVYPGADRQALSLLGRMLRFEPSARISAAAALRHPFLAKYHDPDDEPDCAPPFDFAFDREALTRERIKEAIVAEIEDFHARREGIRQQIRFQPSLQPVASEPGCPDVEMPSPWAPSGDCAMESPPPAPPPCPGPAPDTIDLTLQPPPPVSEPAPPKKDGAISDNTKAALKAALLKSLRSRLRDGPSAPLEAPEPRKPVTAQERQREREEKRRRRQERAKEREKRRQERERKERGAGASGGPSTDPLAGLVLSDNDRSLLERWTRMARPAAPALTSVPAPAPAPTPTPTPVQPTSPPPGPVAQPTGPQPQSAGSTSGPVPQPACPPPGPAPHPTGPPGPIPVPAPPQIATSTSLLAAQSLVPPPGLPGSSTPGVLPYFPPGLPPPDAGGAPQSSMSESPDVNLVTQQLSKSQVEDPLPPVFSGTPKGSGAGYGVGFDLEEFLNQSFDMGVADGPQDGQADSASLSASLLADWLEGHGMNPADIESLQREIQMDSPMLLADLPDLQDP

HL-60 = test: Antiproliferative activity against human HL60 cells assessed as reduction in cell viability measured after 24 hrs; type: functional, cell-based; conditions: HL-60, 24 h
MKN-74 = test: Antiproliferative activity against human MKN74 cells assessed as reduction in cell viability measured after 24 hrs; type: functional, cell-based; conditions: MKN-74, 24 h

Mitogen-activated protein kinase 1 (Homo sapiens), sequence (P28482 whole entry): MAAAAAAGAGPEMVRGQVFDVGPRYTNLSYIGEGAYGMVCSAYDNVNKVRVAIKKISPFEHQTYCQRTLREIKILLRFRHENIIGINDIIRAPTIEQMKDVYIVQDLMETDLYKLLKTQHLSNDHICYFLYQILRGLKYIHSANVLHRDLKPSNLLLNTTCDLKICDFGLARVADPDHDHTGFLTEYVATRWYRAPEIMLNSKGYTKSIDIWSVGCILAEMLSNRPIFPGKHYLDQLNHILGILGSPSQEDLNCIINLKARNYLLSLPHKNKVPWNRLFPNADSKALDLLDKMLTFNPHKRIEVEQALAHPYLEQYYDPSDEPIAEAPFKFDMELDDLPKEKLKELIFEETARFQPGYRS

Row | inhibition [1] | inhibition [2] | IC50 (HeLa) | inhibition [3] | IC50 (HL-60) | IC50 (MKN-74) | SMILES
1 | 43% | 48.3% | > 50 µM | 37.1% | > 50 µM | > 50 µM | Cc1ccccc1NC(=S)N1CCc2c(sc(NC(=O)c3ccccc3C)c2C(N)=O)C1
2 | 81.6% | 77.2% | > 50 µM | 86.5% | 23.5 µM | 19.6 µM | NC(=O)c1c(NC(=O)c2ccccc2C(F)(F)F)sc2c1CCN(C(=S)Nc1ccccc1F)C2
3 | 87.3% | 88% | 28.9 µM | 81% | 4.43 µM | 2.63 µM | NC(=O)c1c(NC(=O)c2ccccc2Cl)sc2c1CCN(C(=S)Nc1ccccc1I)C2
4 | 62.9% | 60.1% | 38.4 µM | 63.7% | 12 µM | 14.5 µM | NC(=O)c1c(NC(=O)c2ccccc2Cl)sc2c1CCN(Cc1ccccc1)C2
5 | 88.8% | 89.3% | 48.9 µM | 77.4% | 6.5 µM | 15 µM | NC(=O)c1c(NC(=O)c2ccccc2Cl)sc2c1CCN(C(=S)Nc1cc(C(F)(F)F)cc(C(F)(F)F)c1)C2
6 | 71.6% | 68.3% | > 50 µM | 37.9% | 21.8 µM | 12.9 µM | NC(=O)c1c(NC(=O)c2ccccc2Cl)sc2c1CCN(Cc1ccccc1F)C2
7 | 48.8% | 49.3% | 49.5 µM | 42.5% | 19.8 µM | 23.3 µM | NC(=O)c1c(NC(=O)c2ccccc2F)sc2c1CCN(Cc1cccc(Cl)c1)C2
8 | 90.5% | 90.7% | 26.5 µM | 88% | 3.95 µM | 4.02 µM | NC(=O)c1c(NC(=O)c2ccccc2Cl)sc2c1CCN(C(=S)Nc1c(Cl)cccc1Cl)C2
9 | 89.2% | 91% | 38.6 µM | 80.3% | 26.7 µM | 24.3 µM | NC(=O)c1c(NC(=O)c2ccccc2Cl)sc2c1CCN(C(=O)Nc1cc(C(F)(F)F)cc(C(F)(F)F)c1)C2
10 | 75% | 80.2% | 27.2 µM | 82.9% | 16.4 µM | 25.8 µM | NC(=O)c1c(NC(=O)c2cccc([N+](=O)[O-])c2)sc2c1CCN(C(=S)Nc1cc(C(F)(F)F)cc(C(F)(F)F)c1)C2
11 | 76.9% | 72% | > 50 µM | 60.1% | 23.2 µM | 17.4 µM | Cc1ccccc1C(=O)Nc1sc2c(c1C(N)=O)CCN(C(=S)Nc1ccccc1C(F)(F)F)C2
12 | 68.6% | 76.6% | 28 µM | 77.3% | 17.9 µM | 13.3 µM | NC(=O)c1c(NC(=O)c2ccccc2F)sc2c1CCN(C(=S)Nc1cc(C(F)(F)F)cc(C(F)(F)F)c1)C2
13 | 59.6% | 56.1% | > 50 µM | 42.8% | > 50 µM | 41.8 µM | COc1ccccc1NC(=S)N1CCc2c(sc(NC(=O)c3ccccc3I)c2C(N)=O)C1
14 | 77.5% | 73.8% | > 50 µM | 58.9% | 13.8 µM | 11.8 µM | NC(=O)c1c(NC(=O)c2ccccc2)sc2c1CCN(C(=S)Nc1ccccc1Cl)C2
15 | 68.6% | 62.4% | 19.4 µM | 65.2% | 12.5 µM | 11.1 µM | NC(=O)c1c(NC(=O)c2ccccc2F)sc2c1CCN(C(=S)Nc1ccccc1Cl)C2
16 | 79.7% | 82.5% | > 50 µM | 57.9% | 5.52 µM | 12.2 µM | NC(=O)c1c(NC(=O)c2ccc(C(F)(F)F)cc2)sc2c1CCN(C(=S)Nc1ccc(C(F)(F)F)cc1)C2
17 | 85% | 82.7% | 27.2 µM | 82.7% | 17.7 µM | 24.4 µM | NC(=O)c1c(NC(=O)c2ccccc2Cl)sc2c1CCN(C(=O)Nc1c(Cl)cccc1Cl)C2
18 | 79.7% | 74.4% | 47.4 µM | 48.6% | > 50 µM | > 50 µM | NC(=O)c1c(NC(=O)c2ccc[nH]2)sc2c1CCN(C(=S)Nc1cccnc1)C2
19 | 59.9% | 61% | 19.6 µM | 22.9% | 15.8 µM | 23.7 µM | NC(=O)c1c(NC(=O)c2ccccc2Cl)sc2c1CCN(Cc1cc(Cl)cc(Cl)c1)C2
20 | 82.1% | 80.9% | 24.7 µM | 88.4% | 17.6 µM | 13.7 µM | NC(=O)c1c(NC(=O)c2ccccc2Br)sc2c1CCN(C(=S)Nc1ccccc1Br)C2
21 | 80.1% | 77.4% | 17.1 µM | 70.8% | 11.8 µM | 14.9 µM | Cc1ccc(C(=O)Nc2sc3c(c2C(N)=O)CCN(C(=S)Nc2cc(C(F)(F)F)cc(C(F)(F)F)c2)C3)cc1
22 | 43.3% | 47.8% | > 50 µM | 61.1% | > 50 µM | > 50 µM | NC(=O)c1c(NC(=O)c2ccc(C(F)(F)F)cc2)sc2c1CCN(Cc1ccc(Cl)cc1)C2
23 | 60.8% | 65.1% | > 50 µM | 46.7% | > 50 µM | > 50 µM | Cc1ccccc1NC(=S)N1CCc2c(sc(NC(=O)c3ccccc3Br)c2C(N)=O)C1
24 | 65.3% | 67.2% | 33 µM | 77.9% | 19.8 µM | 16.5 µM | NC(=O)c1c(NC(=O)c2cccc([N+](=O)[O-])c2)sc2c1CCN(Cc1ccc(Cl)cc1Cl)C2
25 | 53.4% | 60.6% | > 50 µM | 55.3% | > 50 µM | > 50 µM | Cc1ccccc1CN1CCc2c(sc(NC(=O)c3ccccc3Cl)c2C(N)=O)C1
26 | 74.9% | 77.6% | > 50 µM | 61.7% | > 50 µM | 34.5 µM | COc1ccccc1NC(=S)N1CCc2c(sc(NC(=O)c3ccccc3C(F)(F)F)c2C(N)=O)C1
27 | 82.8% | 88.4% | 28.7 µM | 70.7% | 4.97 µM | 12.6 µM | NC(=O)c1c(NC(=O)c2ccccc2Cl)sc2c1CCN(C(=S)Nc1ccccc1F)C2
28 | 42.1% | 55.8% | > 50 µM | 44.3% | 10.4 µM | 9.5 µM | N#Cc1ccccc1CN1CCc2c(sc(NC(=O)c3ccccc3Cl)c2C(N)=O)C1
29 | 68.5% | 60.5% | > 50 µM | 43.3% | > 50 µM | > 50 µM | CCCCCC(=O)Nc1sc2c(c1C(N)=O)CCN(C(=S)NCCCC)C2
30 | 79% | 75.6% | 44 µM | 57.5% | 36.1 µM | 16.4 µM | NC(=O)c1c(NC(=O)c2ccc(C(F)(F)F)cc2)sc2c1CCN(C(=S)Nc1ccccc1Cl)C2
